Laboratory results as given in US8993624B2, “Method of preventing and treating inflammatory diseases and disorders with abscisic acid” (Virginia Tech Intellectual Properties, Inc., priority 2010, dated 2015).

Tests used:
[1] = system: CD3/CD28-stimulated splenocytes; assay: Intracellular cAMP and mRNA in CD3/CD28-stimulated splenocytes; type: cell-based, mouse
Method: (§1) Intracellular cAMP in CD3/CD28-stimulated splenocytes and LPS-stimulated macrophages—Spleens were excised from C57BL6/J mice under sterile conditions. Cells were released by disrupting the tissue between frosted glass slides and red blood cells were lysed with erythrocyte lysis buffer. Splenocytes were enumerated with a Coulter Counter (Beckman Coulter, Fullerton, Calif.) and seeded in cRPMI at 1×10^6/ml onto 24-well plates pre-coated with anti-mouse CD3 (5 μg/mL; BD Pharmingen) and anti-mouse CD28 (1 μg/mL; BD Pharmingen). […] For intracellular assessment of cAMP, cells were harvested into 0.1 M HCl and the lysates were collected. The cAMP concentration of the lysates was determined using an EIA kit (Assay Designs, Ann Arbor, Mich.).

macrophages = assay: Intracellular cAMP in macrophages; type: cell-based, mouse; conditions: 10 minutes
Method: as §1

[2] = system: LPS-induced systemic inflammation; assay: LPS challenge in mice, immune cell subsets by flow cytometry; type: in vivo, mouse
Method: Flow Cytometry—Mesenteric lymph nodes (MLN) and spleen-derived cells (2×10^5 cells/well) or whole blood (10 μL/well) were seeded onto 96-well plates, centrifuged at 4° C. at 3000 rpm for 4 minutes, and washed with PBS containing 5% fetal bovine serum and 0.09% sodium azide (FACS buffer). To assess differential monocyte/macrophage subsets, the cells were incubated in the dark at 4° C. for 20 minutes in FcBlock (20 μg/ml; BD Pharmingen), and then for an additional 20 minutes with fluorochrome-conjugated primary antibodies anti-F4/80-PE-Cy5 (5 μg/mL, eBioscience) and anti-CD 11b-Alexa Fluor 700 (2 μg/mL, eBioscience), and anti-TLR-4-PE-Cy7 (2 μg/mL, eBioscience). For lymphocyte assessment, cells were incubated with anti-CD4-FITC (2 μg/mL; BD Pharmingen), anti-CD8-PerCp-Cy5.5 (2 μg/mL, eBioscience), CD3 PE-Cy5 (2 μg/mL; BD Pharmingen), anti-TLR-4 PE-Cy7, and anti-IL17A-PE (2 μg/mL, eBioscience) as previously shown (23). Flow results were computed with a BD LSR II flow cytometer and data analyses was performed with FACS Diva software (BD).

NF-κB [3] = assay: NF-κB activity in spleens of LPS-challenged mice; type: in vivo, mouse; conditions: spleen
Method: (§2) NF-κB and NFAT activities—Spleens were diced into smaller pieces in lysis buffer containing dithiothreitol and a protease inhibitor cocktail and then further disrupted using a dounce ground glass homogenizer at 4° C. Nuclear extraction for tissue homogenate and BMM was performed using the Nuclear Extract kit (Active Motif, Carlsbad, Calif.) per the manufacturer's instructions. The extracts were used to perform a Bradford-based assay for quantifying the protein concentrations and stored at −80° C. NF-κB and NFATc1 activities were measured as previously described (13) by using the Trans-AM™ NF-κB p65 and the Trans-AM™ NFATc1 ELISA-based assays (Active Motif), respectively per the manufacturer's instructions.

NFATc1 = NFATc1 activity in spleens of LPS-challenged mice; type: in vivo, mouse; conditions: spleen
Method: as §2

NF-κB p65 = NF-κB p65 activity in BMM stimulated with LPS/IFN-γ; type: cell-based, mouse
Method: Bone Marrow-derived Macrophage (BMM) Cultures—Bone marrow cells from PPAR γ flfl; MMTV-Cre− (flfl-Cre−) and flfl-Cre+ mice were cultured in DMEM with M-CSF (50 ng/ml) for 7 days. Fresh media with M-CSF was added on day 3. […] Following differentiation macrophages were directly stimulated with LPS (100 ng/ml) as previously described for 12 hours (21). ABA was added to macrophage cultures at a concentration of 2.5 μM. […]
NF-κB and NFAT activities—Spleens were diced into smaller pieces in lysis buffer containing dithiothreitol and a protease inhibitor cocktail and then further disrupted using a dounce ground glass homogenizer at 4° C. […] The extracts were used to perform a Bradford-based assay for quantifying the protein concentrations and stored at −80° C. NF-κB and NFATc1 activities were measured as previously described (13) by using the Trans-AM™ NF-κB p65 and the Trans-AM™ NFATc1 ELISA-based assays (Active Motif), respectively per the manufacturer's instructions.

RAR = RAR reporter activity (data not shown); type: cell-based
lymphocytes = assay: IL-2 production and lymphocyte proliferation (unpublished data); type: cell-based
Influenza A/Udorn (H3N2) [4] = assay: Dietary (prophylactic) ABA, influenza virus challenge in mice; type: in vivo, mouse; conditions: for survival: ABA diet
Influenza A/Udorn (H3N2) [5] = assay: Post-exposure ABA by gavage, Influenza A/Udorn challenge in mice; type: in vivo, mouse
A/California/09 (H1N1) = assay: Post-exposure ABA by gavage, A/California/09 (H1N1) challenge in mice; type: in vivo, mouse
NF-κB [6] = assay: NF-κB reporter activity assay in 3T3-L1 cells
[7] = system: LPS-induced splenic gene expression; assay: LPS challenge in mice, spleen real-time qRT-PCR
NF-κB [8] = assay: NF-κB reporter activity assay in RAW macrophages; conditions: data not shown
[9] = 100 mg/kg oral gavage once daily 10 days, from 4 hours post-infection

## CC1=CC(=O)CC(C)(C)C1(O)/C=C/C(C)=C\C(=O)O (racemic) [ABA, abscisic acid]
[1]
  LANCL2 mRNA expression: not LANCL2 mRNA expression
  PPAR γ expression: upregulation of PPAR γ
[1]; ABA 10 μM
  intracellular cAMP: significantly increased intracellular cAMP
[1]; data not shown
  phosphodiesterase activity: without affecting phosphodiesterase activity
macrophages
  concentration at cAMP peak: 2.5 µM
macrophages; 2.5 μM
  cAMP peak over control: 10%
[2]; LPS-treated PPAR γ-expressing mice
  TLR4 expression levels by macrophages: reduced
[2]; LPS-treated immune cell-specific PPAR γ null mice, diet 36 days
  percentages of blood monocytes (F4/80+CD11b+): significantly increased
[2]; non-LPS treated mice
  TLR4 expression in CD8+ T cells: significantly reduced
[2]; supplemented diet 36 days
  TLR4 expression in MLN F4/80+CD11b+ macrophages: significantly suppressed
NF-κB [3]
  NF-κB activity: did not affect
NFATc1
  LPS-mediated activation of NFATc1: significantly decreased
NF-κB p65; 2.5 μM ABA, PPAR γ-expressing primary macrophages
  NF-κB p65 activity in nuclear extracts: significantly decreased
NF-κB p65; macrophages with loss of PPAR γ
  NF-κB activity: further activation induced by ABA
RAR
  RAR reporter activity: does not increase
lymphocytes
  IL-2 production: increases
  lymphocyte proliferation: increases
Influenza A/Udorn (H3N2) [4]; WT mice
  survival: 100%
Influenza A/Udorn (H3N2) [4]; WT mice, ABA diet 100 mg/kg of diet
  maximum loss of original body weight: 5%
Influenza A/Udorn (H3N2) [4]; WT mice, vs control diet
  lung MCP-1 mRNA expression: consistently lower levels of MCP-1 mRNA expression
Influenza A/Udorn (H3N2) [4]; WT, vs control diet
  extent of vascular infiltrates: diminished
  infiltration of respiratory airways: diminished
Influenza A/Udorn (H3N2) [4]; cKO mice
  lung MCP-1 mRNA expression: failed to down-regulate MCP-1 expression
  survival: 71.2%
Influenza A/Udorn (H3N2) [4]; cKO mice fed ABA
  beneficial effect on lung inflammatory cell infiltration: abrogated
Influenza A/Udorn (H3N2) [4]; day 4 post-infection
  viral loads in the lungs: no significant differences
Influenza A/Udorn (H3N2) [4]; healthy non-infected WT mice, 36 days
  expression of PPAR γ in BAL-derived cells: significantly increased
Influenza A/Udorn (H3N2) [4]; lung histopathology
  epithelial recovery: neither did it have any effect
Influenza A/Udorn (H3N2) [4]; lung histopathology, days 2, 4, 7
  extent of epithelial necrosis: did not affect
Influenza A/Udorn (H3N2) [4]; mice with defective PPAR γ expression in immune and epithelial cells (cKO)
  weight loss: behaved similar to WT mice fed the control diet
Influenza A/Udorn (H3N2) [5]; 50 mg/kg
  weight loss: slightly suppressed weight loss, although the differences were not statistically significant
Influenza A/Udorn (H3N2) [5]; [9]
  weight loss and recovery: suppressed weight loss for both strains and accelerated recovery
Influenza A/Udorn (H3N2) [5]; 100 mg/kg, 7 dpi, FACS
  accumulation of pro-inflammatory tipDC in lung: lowered the accumulation of pro-inflammatory tipDC
Influenza A/Udorn (H3N2) [5]; 3 and 7 dpi
  expression of MCP-1 in lungs: lowered expression of MCP-1
Influenza A/Udorn (H3N2) [5]; day 7 post-infection
  pulmonary angiopoietin like 4 (ANGIOPL4) mRNA expression: upregulated
  pulmonary interleukin-10 (IL-10) mRNA expression: upregulated
Influenza A/Udorn (H3N2) [5]; day 10 post-infection
  pulmonary 5-LOX activating protein (FLAP) expression: upregulation
  pulmonary 5-lipooxygenase (5-LOX) expression: upregulation
  pulmonary LANCL2 expression: upregulation
  pulmonary PPAR γ expression: upregulation
Influenza A/Udorn (H3N2) [5]; lung, WT
  epithelial necrosis: ameliorated
  mucosal and submucosal inflammatory cell infiltration: ameliorated
  perivascular cuffing: ameliorated
  terminal airway infiltration: ameliorated
Influenza A/Udorn (H3N2) [5]; mice lacking PPAR γ in myeloid cells (myeloid KO)
  beneficial effects on lung inflammatory lesions: abrogated
A/California/09 (H1N1); [9]
  weight loss and recovery: suppressed weight loss for both strains and accelerated recovery
A/California/09 (H1N1); lean and obese mice infected with H1N1
  glucose tolerance: ameliorated glucose tolerance
A/California/09 (H1N1); uninfected control mice
  glucose tolerance: ameliorated glucose tolerance
A/California/09 (H1N1); uninfected mice
  MCP-1 expression in white adipose tissue: down-regulated MCP-1 expression
NF-κB [6]
  NF-κB reporter activity: significantly suppressed
[7]; data not shown
  iNOS mRNA expression: no effect
[7]; mice lacking PPAR γ in immune cells
  effects of ABA on splenic gene expression: abrogated
[7]; regardless of the LPS challenge
  NCOA6 mRNA expression: increased
[7]; spleen, LPS challenge
  Glut4 mRNA: mitigated the LPS-mediated suppression
  PPAR γ mRNA: mitigated the LPS-mediated suppression
  TNF-α mRNA: suppressed LPS-mediated up-regulation
NF-κB [8]
  NF-κB reporter activity: increased
